# Assay results: ChEMBL document CHEMBL1144061, “Biologically active triterpene saponins from callus tissue of Polygala amarella” (J Nat Prod, 1999)
# Tests used:
# [1] = Cytotoxicity against human granulocytes upto 100 ug/mL
# [2] = Induction of human granulocyte phagocytosis at 10 to 100 ug/mL; type: functional
smiles,measurement,setting,value
C[C@H]1O[C@@H](OC(=O)[C@]23CCC(C)(C)C[C@H]2C2=CC[C@@H]4[C@@]5(C)C[C@H](O)C(O[C@@H]6O[C@H](CO)[C@@H](O)[C@H](O)[C@H]6O)[C@@](C)(C(=O)O)[C@@H]5CC[C@@]4(C)[C@]2(CO)CC3)[C@H](O[C@@H]2O[C@H](C)[C@H](O[C@@H]3OC[C@@H](O)[C@H](O[C@@H]4O[C@H](CO)[C@H](O)[C@H](O)[C@H]4O)[C@H]3O)[C@@H](O)[C@H]2O)[C@@H](O[C@@H]2O[C@H](CO)[C@@H](O)[C@H](O)[C@H]2O)[C@H]1O (some centres not stated),Activity,[1],Non-toxic
same,Activity,[2],60%
